Peptide text beside a SMILES is read from it.
target: T1, BK2 -receptor (Rattus norvegicus, UniProt P25023); assay: rat uterus (RU) in vitro, antagonism of BK; conditions: against BK
T1 construct: guinea-pig ileum (GPI), rat uterus (RU) and rabbit jugular vein (RJV); from tissue; host or cells: rat uterus
T1 sequence (P25023 1-396): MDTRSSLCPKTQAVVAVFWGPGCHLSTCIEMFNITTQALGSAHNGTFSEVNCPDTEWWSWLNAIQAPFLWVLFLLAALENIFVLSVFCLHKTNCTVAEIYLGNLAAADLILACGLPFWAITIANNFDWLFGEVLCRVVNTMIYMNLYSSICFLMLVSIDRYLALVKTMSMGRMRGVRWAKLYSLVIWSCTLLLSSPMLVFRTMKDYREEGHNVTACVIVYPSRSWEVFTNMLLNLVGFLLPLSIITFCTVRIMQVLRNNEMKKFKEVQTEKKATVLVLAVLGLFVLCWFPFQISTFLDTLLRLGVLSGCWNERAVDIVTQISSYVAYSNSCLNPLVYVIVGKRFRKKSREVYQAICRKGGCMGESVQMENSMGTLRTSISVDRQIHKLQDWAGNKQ
Procedure: Thus, in vitro studies were performed on standard assay systems, namely, guinea-pig ileum (GPI), rat uterus (RU) and rabbit jugular vein (RJV). […] The potency of each compound was assessed as a pA2 value according to the method of Arunlakshana & Schild, Br. J. Pharmacol. Chemother., 14:48-58 (1959). The pA2 can be defined as the negative logarithm of the molar concentration of the antagonist in the presence of which the potency of the agonist is reduced two-fold, i.e., twice the amount of agonist is required to produce a given response in the presence of, than in the absence of, the antagonist. A high potency of antagonism is indicated by a high pA2 value. i.e., a low concentration of antagonist is effective.
The percentage recovery (% Rec) was also determined for compounds with respect to each assay.
With respect to duration of activity, it is noted that after exposure to the highest concentration of antagonist, each tissue was washed extensively and then assessed for recovery from the antagonist effect.
Potency in the rat uterus assay was assessed as described above and pA2 values determined.

SMILES	pA2 rat uterus (BK2)
CC(C)C[C@H](NC(=O)[C@@H](Cc1ccccc1)NC(=O)[C@H](CSC1CC(=O)N(CCCCN2C(=O)CC(SC[C@H](NC(=O)[C@H](Cc3ccccc3)NC(=O)CNC(=O)[C@@H]3C[C@@H](O)CN3C(=O)[C@@H]3CCCN3C(=O)[C@H](CCCNC(=N)N)NC(=O)[C@H](N)CCCNC(=N)N)C(=O)N[C@H](Cc3ccccc3)C(=O)N[C@@H](CC(C)C)C(=O)N[C@@H](CCCNC(=N)N)C(=O)O)C2=O)C1=O)NC(=O)[C@H](Cc1ccccc1)NC(=O)CNC(=O)[C@@H]1C[C@@H](O)CN1C(=O)[C@@H]1CCCN1C(=O)[C@H](CCCNC(=N)N)NC(=O)[C@H](N)CCCNC(=N)N)C(=O)N[C@@H](CCCNC(=N)N)C(=O)O (stereo partly drawn) [CP-0209] (HELM PEPTIDE1{[dR].R.P.[Hyp].G.F.C.[dF].L.R}|PEPTIDE2{[dR].R.P.[Hyp].G.F.C.[dF].L.R}|CHEM1{[O=C1CC([*:1])C(=O)N1CCCCN1C(=O)CC([*:2])C1=O]}$PEPTIDE1,CHEM1,7:R3-1:R1|PEPTIDE2,CHEM1,7:R3-1:R2$$$V2.0)	8.2 ± 0.2
CC(C)C[C@H](NC(=O)[C@@H]1CCCN1C(=O)[C@H](CO)NC(=O)[C@H](Cc1ccccc1)NC(=O)CNC(=O)[C@@H]1C[C@@H](O)CN1C(=O)[C@@H]1CCCN1C(=O)[C@H](CS)NC(=O)[C@@H](N)CCCCN)C(=O)O [CP-0374, K--C--P--J--G--F--S--P--L] (HELM PEPTIDE1{K.C.P.[Hyp].G.F.S.P.L}$$$$V2.0; N-terminus and C-terminus assumed)	no measurable activity
CC(C)C[C@H](NC(=O)[C@@H](Cc1ccccc1)NC(=O)[C@H](CSC1CC(=O)N(CCCCCCN2C(=O)CC(SC[C@H](NC(=O)[C@@H](Cc3c[nH]c4ccccc34)NC(=O)[C@@H](NC(=O)[C@@H](Cc3c[nH]c4ccccc34)NC(=O)[C@H](Cc3ccc(O)cc3)NC(=O)[C@@H](N)CC(=O)O)C(C)C)C(=O)N[C@@H](CCCNC(=N)N)C(N)=O)C2=O)C1=O)NC(=O)[C@H](Cc1ccccc1)NC(=O)CNC(=O)[C@@H]1C[C@@H](O)CN1C(=O)[C@@H]1CCCN1C(=O)[C@H](CCCNC(=N)N)NC(=O)[C@H](N)CCCNC(=N)N)C(=O)N[C@@H](CCCNC(=N)N)C(=O)O (stereo partly drawn) [CP-0416] (HELM PEPTIDE1{[dR].R.P.[Hyp].G.F.C.[dF].L.R}|PEPTIDE2{D.Y.[dW].V.[dW].C.R.[am]}|CHEM1{[O=C1CC([*:1])C(=O)N1CCCCCCN1C(=O)CC([*:2])C1=O]}$PEPTIDE1,CHEM1,7:R3-1:R1|PEPTIDE2,CHEM1,6:R3-1:R2$$$V2.0)	8.7 ± 0.2
CC(C)C[C@H](NC(=O)[C@@H](Cc1ccccc1)NC(=O)[C@H](CSC1CC(=O)N(CCCCCCN2C(=O)CC(SC[C@H](NC(=O)[C@@H](NC(=O)[C@@H](Cc3c[nH]c4ccccc34)NC(=O)[C@H](Cc3ccc(O)cc3)NC(=O)[C@@H](N)CC(=O)O)C(C)C)C(=O)N[C@H](Cc3c[nH]c4ccccc34)C(=O)N[C@@H](CCCNC(=N)N)C(N)=O)C2=O)C1=O)NC(=O)[C@H](Cc1ccccc1)NC(=O)CNC(=O)[C@@H]1C[C@@H](O)CN1C(=O)[C@@H]1CCCN1C(=O)[C@H](CCCNC(=N)N)NC(=O)[C@H](N)CCCNC(=N)N)C(=O)N[C@@H](CCCNC(=N)N)C(=O)O (stereo partly drawn) [CP-0415] (HELM PEPTIDE1{[dR].R.P.[Hyp].G.F.C.[dF].L.R}|PEPTIDE2{D.Y.[dW].V.C.[dW].R.[am]}|CHEM1{[O=C1CC([*:1])C(=O)N1CCCCCCN1C(=O)CC([*:2])C1=O]}$PEPTIDE1,CHEM1,7:R3-1:R1|PEPTIDE2,CHEM1,5:R3-1:R2$$$V2.0)	7.8 ± 0.1

same assay, conditions: against BK; read-out: pA2 rat uterus (BK2) (converted)

SMILES	Kb
CC(C)C[C@H](NC(=O)[C@@H](Cc1ccccc1)NC(=O)[C@H](CSC1CC(=O)N(CCN2C(=O)CC(SC[C@H](NC(=O)[C@H](Cc3ccccc3)NC(=O)CNC(=O)[C@@H]3C[C@@H](O)CN3C(=O)[C@@H]3CCCN3C(=O)[C@H](CCCNC(=N)N)NC(=O)[C@H](N)CCCNC(=N)N)C(=O)N[C@H](Cc3ccccc3)C(=O)N[C@@H](CC(C)C)C(=O)N[C@@H](CCCNC(=N)N)C(=O)O)C2=O)C1=O)NC(=O)[C@H](Cc1ccccc1)NC(=O)CNC(=O)[C@@H]1C[C@@H](O)CN1C(=O)[C@@H]1CCCN1C(=O)[C@H](CCCNC(=N)N)NC(=O)[C@H](N)CCCNC(=N)N)C(=O)N[C@@H](CCCNC(=N)N)C(=O)O (stereo partly drawn) [CP-0162] (HELM PEPTIDE1{[dR].R.P.[Hyp].G.F.C.[dF].L.R}|PEPTIDE2{[dR].R.P.[Hyp].G.F.C.[dF].L.R}|CHEM1{[O=C1CC([*:1])C(=O)N1CCN1C(=O)CC([*:2])C1=O]}$PEPTIDE1,CHEM1,7:R3-1:R1|PEPTIDE2,CHEM1,7:R3-1:R2$$$V2.0)	3.98 nM

same assay, conditions: percentage recovery after washing

SMILES	% REC rat uterus
CC(C)C[C@H](NC(=O)[C@@H](Cc1ccccc1)NC(=O)[C@H](CO)NC(=O)[C@H](CSC1CC(=O)N(CCCCCCN2C(=O)CC(SC[C@H](NC(=O)CNC(=O)[C@@H]3C[C@@H](O)CN3C(=O)[C@@H]3CCCN3C(=O)[C@H](CCCNC(=N)N)NC(=O)[C@H](N)CCCNC(=N)N)C(=O)N[C@@H](CO)C(=O)N[C@H](Cc3ccccc3)C(=O)N[C@@H](CC(C)C)C(=O)N[C@@H](CCCNC(=N)N)C(=O)O)C2=O)C1=O)NC(=O)CNC(=O)[C@@H]1C[C@@H](O)CN1C(=O)[C@@H]1CCCN1C(=O)[C@H](CCCNC(=N)N)NC(=O)[C@H](N)CCCNC(=N)N)C(=O)N[C@@H](CCCNC(=N)N)C(=O)O (stereo partly drawn) [CP-0156] (HELM PEPTIDE1{[dR].R.P.[Hyp].G.C.S.[dF].L.R}|PEPTIDE2{[dR].R.P.[Hyp].G.C.S.[dF].L.R}|CHEM1{[O=C1CC([*:1])C(=O)N1CCCCCCN1C(=O)CC([*:2])C1=O]}$PEPTIDE1,CHEM1,6:R3-1:R1|PEPTIDE2,CHEM1,6:R3-1:R2$$$V2.0)	75%

target: T2, BK1 receptor (Oryctolagus cuniculus, UniProt P48748); assay: rabbit aorta in vitro, reversal of des-Arg^9 -BK contraction; set-up: on rabbit aorta (BK1 -receptor) in vitro; from tissue; host or cells: rabbit aorta; conditions: negative log of molar concentration causing 50% reversal of des-Arg^9 -BK (10^-7 M) contraction
T2 sequence (P48748 1-352): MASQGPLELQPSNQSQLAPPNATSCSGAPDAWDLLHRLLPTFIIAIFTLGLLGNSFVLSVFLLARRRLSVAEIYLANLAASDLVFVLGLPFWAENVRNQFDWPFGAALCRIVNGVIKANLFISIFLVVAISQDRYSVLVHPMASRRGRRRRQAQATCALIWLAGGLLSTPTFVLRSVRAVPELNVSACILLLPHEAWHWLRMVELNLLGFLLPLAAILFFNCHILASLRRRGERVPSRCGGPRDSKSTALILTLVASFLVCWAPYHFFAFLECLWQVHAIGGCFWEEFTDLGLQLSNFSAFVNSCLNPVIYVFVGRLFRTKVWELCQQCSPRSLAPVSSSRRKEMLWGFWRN
Procedure: Each antagonist was then added, in a cumulative fashion, on top of the contraction and the negative log of the molar concentration of the antagonist causing a 50% reversal (IC50) of the […] measured.

SMILES	BK1 rabbit aorta IC50
CC(C)C[C@H](NC(=O)[C@@H](Cc1ccccc1)NC(=O)[C@H](CO)NC(=O)[C@H](Cc1ccccc1)NC(=O)CNC(=O)[C@@H]1C[C@@H](O)CN1C(=O)[C@@H]1CCCN1C(=O)[C@H](CS)NC(=O)[C@H](N)CCCNC(=N)N)C(=O)O [CP-0376, D R--C--P--J--G--F--S--D F--L] (HELM PEPTIDE1{[dR].C.P.[Hyp].G.F.S.[dF].L}$$$$V2.0; N-terminus and C-terminus assumed)	4.9 ± 0.3
CC(C)C[C@H](NC(=O)[C@@H](Cc1ccccc1)NC(=O)[C@H](CO)NC(=O)[C@H](Cc1ccccc1)NC(=O)CNC(=O)[C@@H]1C[C@@H](O)CN1C(=O)[C@@H]1CCCN1C(=O)[C@H](CCCNC(=N)N)NC(=O)[C@H](N)CCCNC(=N)N)C(=O)O [CP-0253, D R--R--P--J--G--F--S--D F--L] (HELM PEPTIDE1{[dR].R.P.[Hyp].G.F.S.[dF].L}$$$$V2.0; N-terminus and C-terminus assumed)	6.9 ± 0.1
N=C(N)NCCC[C@@H](N)C(=O)N[C@@H](CS)C(=O)N1CCC[C@H]1C(=O)N1C[C@H](O)C[C@H]1C(=O)NCC(=O)N[C@@H](Cc1ccccc1)C(=O)N[C@@H](CO)C(=O)N1Cc2ccccc2C[C@@H]1C(=O)N1[C@H](C(=O)O)C[C@@H]2CCCC[C@@H]21 [CP-0363, D R--C--P--J--G--F--S--D Tic--Oic] (HELM PEPTIDE1{[dR].C.P.[Hyp].G.F.S.[O=C([C@H]1Cc2ccccc2CN1[*:1])[*:2]].[O=C(O)[C@@H]1C[C@@H]2CCCC[C@@H]2N1[*:1]]}$$$$V2.0; N-terminus and C-terminus assumed)	6.2 ± 0.3
CC(C)C[C@H](NC(=O)[C@@H]1CCCN1C(=O)[C@H](CO)NC(=O)[C@H](Cc1ccccc1)NC(=O)CNC(=O)[C@@H]1C[C@@H](O)CN1C(=O)[C@@H]1CCCN1C(=O)[C@H](CCCCN)NC(=O)[C@H](N)CCCNC(=N)N)C(=O)O [CP-0388, D R--K--P--J--G--F--S--P--L] (HELM PEPTIDE1{[dR].K.P.[Hyp].G.F.S.P.L}$$$$V2.0; N-terminus and C-terminus assumed)	6.5 ± 0.1
CC(C)C[C@H](NC(=O)[C@@H]1CCCN1C(=O)[C@H](CO)NC(=O)[C@H](Cc1ccccc1)NC(=O)CNC(=O)[C@@H]1C[C@@H](O)CN1C(=O)[C@@H]1CCCN1C(=O)[C@H](CS)NC(=O)[C@@H](N)CCCCN)C(=O)O [CP-0374, K--C--P--J--G--F--S--P--L] (HELM PEPTIDE1{K.C.P.[Hyp].G.F.S.P.L}$$$$V2.0; N-terminus and C-terminus assumed)	6.5 ± 0.3
CC(C)C[C@H](NC(=O)[C@@H](Cc1ccccc1)NC(=O)[C@H](CS)NC(=O)[C@H](Cc1ccccc1)NC(=O)CNC(=O)[C@@H]1C[C@@H](O)CN1C(=O)[C@@H]1CCCN1C(=O)[C@H](CCCNC(=N)N)NC(=O)[C@H](N)CCCNC(=N)N)C(=O)O [CP-0254, D R--R--P--J--G--F--C--D F--L] (HELM PEPTIDE1{[dR].R.P.[Hyp].G.F.C.[dF].L}$$$$V2.0; N-terminus and C-terminus assumed)	6.4 ± 0.1
